Results published in patent US20190216761A1, “COMPOSITIONS COMPRISING 15-HEPE AND METHODS OF USING THE SAME” (Afimmune Limited, priority 2015, published 2019).

Tests used:
Assay type in all cases: cell-based
rPPARα = biological target: T1, rPPARα (Rattus norvegicus, UniProt P37230); assay: PPAR antagonist reporter assay (reference agonist at EC80)
T1 construct: expressed in transfected cells
T1 sequence (P37230 239-466 limits assumed): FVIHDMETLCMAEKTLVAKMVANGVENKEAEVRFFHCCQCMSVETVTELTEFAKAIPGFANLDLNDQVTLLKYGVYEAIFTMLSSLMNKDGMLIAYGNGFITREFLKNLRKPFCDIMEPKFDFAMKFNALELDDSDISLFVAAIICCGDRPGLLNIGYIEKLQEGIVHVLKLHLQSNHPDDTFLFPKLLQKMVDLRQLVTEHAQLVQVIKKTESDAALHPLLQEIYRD
Procedure: (§1) This study utilized proprietary reporter cells expressing a hybrid receptor comprising the N-terminal Gal4 DNA binding domain fused to the ligand binding domain of the specific human nuclear receptor (hPPARα, hPPARδ, and hPPARγ) and rat nuclear receptor (rPPARα, rPPARδ, and rPPARγ). The reporter vectors used in this Example comprise the firefly luciferase gene functionally linked to the Gal4 upstream activation sequence.
(§2) Nuclear Receptor assay was performed by suspending Reporter Cells in CRM containing 10% charcoal stripped FBS. 2×-EC80 concentrations of the appropriate reference agonist were then added to the Reporter Cell suspension, and 100 μL of the mixture dispensed into wells of a white 96-well plate. Test compounds were diluted using compound screening medium (CSM) containing 10% charcoal stripped FBS to generate “2×-concentration” treatment media. Immediately after this dilution step, 100 μL of each diluted 2×-concentration treatment medium was dispensed (in triplicate) into the Reporter Cell-containing assay wells.
(§3) After incubation at 37° C. for 24 hours, the treatment media was discarded. Each well was rinsed once with LCM Buffer; LCM substrate was then added. After incubation for 30 minutes at 37° C., fluorescence was measured to determine the relative number of live cells per assay well. LCM substrate was then discarded and 100 μL of Luciferase Detection Reagent substrate was added to each well. RLUs were quantified from each well to determine nuclear receptor activities.

hPPARα = biological target: T2, hPPARα (Homo sapiens, UniProt Q07869); assay: as above
T2 construct: expressed in transfected cells
T2 sequence (Q07869 239-466 limits assumed): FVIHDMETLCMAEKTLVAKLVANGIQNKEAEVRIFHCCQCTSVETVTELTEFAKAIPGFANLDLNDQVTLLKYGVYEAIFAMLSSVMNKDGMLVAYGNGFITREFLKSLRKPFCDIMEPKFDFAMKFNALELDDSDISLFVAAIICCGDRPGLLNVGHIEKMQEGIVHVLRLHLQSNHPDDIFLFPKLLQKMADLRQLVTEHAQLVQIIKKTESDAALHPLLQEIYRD
Procedure: as §1, §2, §3

hPPARδ = biological target: T3, hPPARδ (Homo sapiens, UniProt Q03181); assay: as above
T3 construct: expressed in transfected cells
T3 sequence (Q03181 211-439 limits assumed): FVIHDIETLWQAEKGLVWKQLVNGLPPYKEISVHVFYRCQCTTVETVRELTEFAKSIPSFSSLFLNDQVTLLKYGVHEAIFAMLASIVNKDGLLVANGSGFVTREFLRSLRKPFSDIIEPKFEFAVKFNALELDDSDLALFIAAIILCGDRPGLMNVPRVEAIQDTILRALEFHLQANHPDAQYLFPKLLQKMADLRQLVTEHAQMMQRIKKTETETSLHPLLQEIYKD
Procedure: as §1, §2, §3

hPPARα Reporter Cells = assay: Live cell multiplex assay
Procedure: as §1, §2, §3

hPPARγ Reporter Cells = assay: Live cell multiplex assay
Procedure: as §1, §2, §3

hPPARδ Reporter Cells = assay: Live cell multiplex assay
Procedure: as §1, §2, §3

rPPARδ Reporter Cells = assay: Live cell multiplex assay
Procedure: as §1, §2, §3

rPPARα Reporter Cells = assay: Live cell multiplex assay
Procedure: as §1, §2, §3

rPPARγ Reporter Cells = assay: Live cell multiplex assay
Procedure: as §1, §2, §3

- % Inhibition of agonist-stimulated receptor activity vs. 0.10% DMSO, rPPAR-α (rPPARα; 137 nM): 42%
- % Inhibition of agonist-stimulated receptor activity vs. 0.10% DMSO, rPPAR-α (rPPARα; 412 nM): 26%
- % Inhibition of agonist-stimulated receptor activity vs. 0.10% DMSO, rPPAR-α (rPPARα; 1,235 nM): 25%
- % Inhibition of agonist-stimulated receptor activity vs. 0.10% DMSO, rPPAR-α (rPPARα; 3,704 nM): 21%
- % Inhibition of agonist-stimulated receptor activity vs. 0.10% DMSO, rPPAR-α (rPPARα; 11,111 nM): 21%
- % Inhibition of agonist-stimulated receptor activity vs. 0.10% DMSO, rPPAR-α (rPPARα; 33,333 nM): 38%
- % Inhibition of agonist-stimulated receptor activity vs. 0.10% DMSO, rPPAR-α (rPPARα; 100,000 nM): 79%
- % Inhibition of agonist-stimulated receptor activity vs. 0.10% DMSO, rPPAR-α (rPPARα; 300,000 nM): 100%
- inhibition of rat PPARs (in words), rPPARα (rPPARα; at higher test concentrations): apparent inhibition
- % Inhibition of agonist-stimulated receptor activity vs. 0.10% DMSO, hPPAR-α (hPPARα; 137 nM): 49%
- % Inhibition of agonist-stimulated receptor activity vs. 0.10% DMSO, hPPAR-α (hPPARα; 412 nM): 21%
- % Inhibition of agonist-stimulated receptor activity vs. 0.10% DMSO, hPPAR-α (hPPARα; 1,235 nM): 13%
- % Inhibition of agonist-stimulated receptor activity vs. 0.10% DMSO, hPPAR-α (hPPARα; 3,704 nM): 14%
- % Inhibition of agonist-stimulated receptor activity vs. 0.10% DMSO, hPPAR-α (hPPARα; 11,111 nM): 14%
- % Inhibition of agonist-stimulated receptor activity vs. 0.10% DMSO, hPPAR-α (hPPARα; 33,333 nM): 26%
- % Inhibition of agonist-stimulated receptor activity vs. 0.10% DMSO, hPPAR-α (hPPARα; 100,000 nM): 40%
- % Inhibition of agonist-stimulated receptor activity vs. 0.10% DMSO, hPPAR-α (hPPARα; 300,000 nM): 83%
- inhibition of human PPARs (in words), hPPARα (hPPARα; at higher test concentrations): apparent inhibition
- % Inhibition of agonist-stimulated receptor activity vs. 0.10% DMSO, hPPAR-δ (hPPARδ; 137 nM): 0.68%
- % Inhibition of agonist-stimulated receptor activity vs. 0.10% DMSO, hPPAR-δ (hPPARδ; 412 nM): −7.7%
- % Inhibition of agonist-stimulated receptor activity vs. 0.10% DMSO, hPPAR-δ (hPPARδ; 1,235 nM): −11%
- % Inhibition of agonist-stimulated receptor activity vs. 0.10% DMSO, hPPAR-δ (hPPARδ; 3,704 nM): −10%
- % Inhibition of agonist-stimulated receptor activity vs. 0.10% DMSO, hPPAR-δ (hPPARδ; 11,111 nM): −10%
- % Inhibition of agonist-stimulated receptor activity vs. 0.10% DMSO, hPPAR-δ (hPPARδ; 33,333 nM): 1.6%
- % Inhibition of agonist-stimulated receptor activity vs. 0.10% DMSO, hPPAR-δ (hPPARδ; 100,000 nM): 29%
- % Inhibition of agonist-stimulated receptor activity vs. 0.10% DMSO, hPPAR-δ (hPPARδ; 300,000 nM): 100%
- inhibition of human PPARs (in words), hPPARδ (hPPARδ; at higher test concentrations): apparent inhibition
Compound: CC/C=C\C[C@H](O)/C=C/C=C\C/C=C\C/C=C\CCCC(=O)OCC [15-HEPE-EE, 15-HEPE ethyl ester]
- % Live cells vs. 0.10% DMSO, hPPAR-α (hPPARα Reporter Cells; 137 nM): 96%
- % Live cells vs. 0.10% DMSO, hPPAR-α (hPPARα Reporter Cells; 412 nM): 94%
- % Live cells vs. 0.10% DMSO, hPPAR-α (hPPARα Reporter Cells; 1,235 nM): 119%
- % Live cells vs. 0.10% DMSO, hPPAR-α (hPPARα Reporter Cells; 3,704 nM): 120%
- % Live cells vs. 0.10% DMSO, hPPAR-α (hPPARα Reporter Cells; 11,111 nM): 117%
- % Live cells vs. 0.10% DMSO, hPPAR-α (hPPARα Reporter Cells; 33,333 nM): 115%
- % Live cells vs. 0.10% DMSO, hPPAR-α (hPPARα Reporter Cells; 100,000 nM): 69%
- % Live cells vs. 0.10% DMSO, hPPAR-α (hPPARα Reporter Cells; 300,000 nM): 35%
- % Live cells vs. 0.10% DMSO, hPPAR-γ (hPPARγ Reporter Cells; 137 nM): 86%
- % Live cells vs. 0.10% DMSO, hPPAR-γ (hPPARγ Reporter Cells; 412 nM): 99%
- % Live cells vs. 0.10% DMSO, hPPAR-γ (hPPARγ Reporter Cells; 1,235 nM): 101%
- % Live cells vs. 0.10% DMSO, hPPAR-γ (hPPARγ Reporter Cells; 3,704 nM): 101%
- % Live cells vs. 0.10% DMSO, hPPAR-γ (hPPARγ Reporter Cells; 11,111 nM): 100%
- % Live cells vs. 0.10% DMSO, hPPAR-γ (hPPARγ Reporter Cells; 33,333 nM): 99%
- % Live cells vs. 0.10% DMSO, hPPAR-γ (hPPARγ Reporter Cells; 100,000 nM): 91%
- % Live cells vs. 0.10% DMSO, hPPAR-γ (hPPARγ Reporter Cells; 300,000 nM): 4.9%
- % Live cells vs. 0.10% DMSO, hPPAR-δ (hPPARδ Reporter Cells; 137 nM): 95%
- % Live cells vs. 0.10% DMSO, hPPAR-δ (hPPARδ Reporter Cells; 412 nM): 98%
- % Live cells vs. 0.10% DMSO, hPPAR-δ (hPPARδ Reporter Cells; 1,235 nM): 99%
- % Live cells vs. 0.10% DMSO, hPPAR-δ (hPPARδ Reporter Cells; 3,704 nM): 100%
- % Live cells vs. 0.10% DMSO, hPPAR-δ (hPPARδ Reporter Cells; 11,111 nM): 101%
- % Live cells vs. 0.10% DMSO, hPPAR-δ (hPPARδ Reporter Cells; 33,333 nM): 101%
- % Live cells vs. 0.10% DMSO, hPPAR-δ (hPPARδ Reporter Cells; 100,000 nM): 101%
- % Live cells vs. 0.10% DMSO, hPPAR-δ (hPPARδ Reporter Cells; 300,000 nM): 7.7%
- % Live cells vs. 0.10% DMSO, rPPAR-δ (rPPARδ Reporter Cells; 137 nM): 99%
- % Live cells vs. 0.10% DMSO, rPPAR-δ (rPPARδ Reporter Cells; 412 nM): 97%
- % Live cells vs. 0.10% DMSO, rPPAR-δ (rPPARδ Reporter Cells; 1,235 nM): 98%
- % Live cells vs. 0.10% DMSO, rPPAR-δ (rPPARδ Reporter Cells; 3,704 nM): 99%
- % Live cells vs. 0.10% DMSO, rPPAR-δ (rPPARδ Reporter Cells; 11,111 nM): 100%
- % Live cells vs. 0.10% DMSO, rPPAR-δ (rPPARδ Reporter Cells; 33,333 nM): 100%
- % Live cells vs. 0.10% DMSO, rPPAR-δ (rPPARδ Reporter Cells; 100,000 nM): 99%
- % Live cells vs. 0.10% DMSO, rPPAR-δ (rPPARδ Reporter Cells; 300,000 nM): 5.0%
- % Live cells vs. 0.10% DMSO, rPPAR-α (rPPARα Reporter Cells; 137 nM): 89%
- % Live cells vs. 0.10% DMSO, rPPAR-α (rPPARα Reporter Cells; 412 nM): 98%
- % Live cells vs. 0.10% DMSO, rPPAR-α (rPPARα Reporter Cells; 1,235 nM): 97%
- % Live cells vs. 0.10% DMSO, rPPAR-α (rPPARα Reporter Cells; 3,704 nM): 99%
- % Live cells vs. 0.10% DMSO, rPPAR-α (rPPARα Reporter Cells; 11,111 nM): 99%
- % Live cells vs. 0.10% DMSO, rPPAR-α (rPPARα Reporter Cells; 33,333 nM): 98%
- % Live cells vs. 0.10% DMSO, rPPAR-α (rPPARα Reporter Cells; 100,000 nM): 76%
- % Live cells vs. 0.10% DMSO, rPPAR-α (rPPARα Reporter Cells; 300,000 nM): 3.1%
- % Live cells vs. 0.10% DMSO, rPPAR-γ (rPPARγ Reporter Cells; 137 nM): 98%
- % Live cells vs. 0.10% DMSO, rPPAR-γ (rPPARγ Reporter Cells; 412 nM): 101%
- % Live cells vs. 0.10% DMSO, rPPAR-γ (rPPARγ Reporter Cells; 1,235 nM): 101%
- % Live cells vs. 0.10% DMSO, rPPAR-γ (rPPARγ Reporter Cells; 3,704 nM): 100%
- % Live cells vs. 0.10% DMSO, rPPAR-γ (rPPARγ Reporter Cells; 11,111 nM): 101%
- % Live cells vs. 0.10% DMSO, rPPAR-γ (rPPARγ Reporter Cells; 33,333 nM): 101%
- % Live cells vs. 0.10% DMSO, rPPAR-γ (rPPARγ Reporter Cells; 100,000 nM): 99%
- % Live cells vs. 0.10% DMSO, rPPAR-γ (rPPARγ Reporter Cells; 300,000 nM): 91%
